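At the GI50, growth is halved. TGI is the concentration that stops growth completely.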
Legend:
Assay in all cases: NCI tumour cell line growth inhibition, 384-well format
SK-MEL-28 melanoma = system: SK-MEL-28 melanoma
SW-620 colon = system: SW-620 colon
M14 melanoma = system: M14 melanoma
SK-MEL-5 melanoma = system: SK-MEL-5 melanoma
MALME-3M melanoma = system: MALME-3M melanoma
SN12C renal = system: SN12C renal
PC-3 prostate = system: PC-3 prostate
T-47D breast = system: T-47D breast
ACHN renal = system: ACHN renal
U251 glioblastoma = system: U251 glioblastoma
NCI-H23 lung = system: NCI-H23 lung
KM12 colon = system: KM12 colon
SF-539 CNS = system: SF-539 CNS
NCI-H322M lung = system: NCI-H322M lung
MCF7 breast = system: MCF7 breast
RXF 393 renal = system: RXF 393 renal
MDA-MB-468 breast = system: MDA-MB-468 breast
NCI-H460 NSCLC = system: NCI-H460 NSCLC
HCC-2998 colon = system: HCC-2998 colon
CCRF-CEM leukemia = system: CCRF-CEM leukemia
HCT-116 colon = system: HCT-116 colon
HT29 colon = system: HT29 colon
NCI-H522 lung = system: NCI-H522 lung
EKVX NSCLC = system: EKVX NSCLC
SNB-75 CNS = system: SNB-75 CNS
NCI/ADR-RES ovarian = system: NCI/ADR-RES ovarian
DU-145 prostate = system: DU-145 prostate
IGROV1 ovarian = system: IGROV1 ovarian
MDA-MB-435 melanoma = system: MDA-MB-435 melanoma
K-562 leukemia = system: K-562 leukemia
UACC-257 melanoma = system: UACC-257 melanoma
HOP-92 NSCLC = system: HOP-92 NSCLC
UACC-62 melanoma = system: UACC-62 melanoma
A549 NSCLC = system: A549 NSCLC
RPMI-8226 leukemia = system: RPMI-8226 leukemia
TK-10 renal = system: TK-10 renal
OVCAR-5 ovarian = system: OVCAR-5 ovarian
HCT-15 colon = system: HCT-15 colon
SF-268 CNS = system: SF-268 CNS
SK-MEL-2 melanoma = system: SK-MEL-2 melanoma
COLO 205 colon = system: COLO 205 colon
BT-549 breast = system: BT-549 breast
NCI-H226 lung = system: NCI-H226 lung
HS 578T breast = system: HS 578T breast
786-0 renal = system: 786-0 renal
OVCAR-4 ovarian = system: OVCAR-4 ovarian
A498 renal = system: A498 renal
MDA-MB-231 breast = system: MDA-MB-231 breast
OVCAR-3 ovarian = system: OVCAR-3 ovarian
SNB-19 CNS = system: SNB-19 CNS
OVCAR-8 ovarian = system: OVCAR-8 ovarian
MOLT-4 leukemia = system: MOLT-4 leukemia
HL-60(TB) leukemia = system: HL-60(TB) leukemia
HOP-62 NSCLC = system: HOP-62 NSCLC
SK-OV-3 ovarian = system: SK-OV-3 ovarian
CAKI-1 renal = system: CAKI-1 renal
SR leukemia = system: SR leukemia
SF-295 CNS = system: SF-295 CNS

Question: For `C[C@@]1(c2ncncc2F)NC(=O)c2cc(-c3cn[nH]c3)ccc21`, which GI50 (SK-MEL-28 melanoma) is on record?
Answer: 11.8 µM

Question: What about the TGI (SK-MEL-28 melanoma) of the same compound?
Answer: 27.6 µM

Question: What about the GI50 (SW-620 colon) of the same compound?
Answer: 2.03 µM

Question: And the TGI (SW-620 colon)?
Answer: 5.93 µM

Question: And the GI50 (M14 melanoma)?
Answer: 5.45 µM

Question: What about the TGI (M14 melanoma) of the same compound?
Answer: 22 µM

Question: And the GI50 (SK-MEL-5 melanoma)?
Answer: 13 µM

Question: What about the TGI (SK-MEL-5 melanoma) of the same compound?
Answer: 31 µM

Question: What about the GI50 (MALME-3M melanoma) of the same compound?
Answer: 2.77 µM

Question: What about the TGI (MALME-3M melanoma) of the same compound?
Answer: 14.4 µM

Question: And the GI50 (SN12C renal)?
Answer: 17.3 µM

Question: What about the TGI (SN12C renal) of the same compound?
Answer: 49.9 µM

Question: And the GI50 (PC-3 prostate)?
Answer: 21.6 µM

Question: What about the TGI (PC-3 prostate) of the same compound?
Answer: 71.1 µM

Question: What about the GI50 (T-47D breast) of the same compound?
Answer: 30.9 µM

Question: And the TGI (T-47D breast)?
Answer: 82.1 µM

Question: What about the GI50 (ACHN renal) of the same compound?
Answer: 20.9 µM

Question: And the TGI (ACHN renal)?
Answer: 69.8 µM

Question: And the GI50 (U251 glioblastoma)?
Answer: 11.1 µM

Question: And the TGI (U251 glioblastoma)?
Answer: 48.4 µM

Question: And the GI50 (NCI-H23 lung)?
Answer: 10.4 µM

Question: What about the TGI (NCI-H23 lung) of the same compound?
Answer: 25.2 µM

Question: And the GI50 (KM12 colon)?
Answer: 15.8 µM

Question: What about the TGI (KM12 colon) of the same compound?
Answer: 35.1 µM

Question: And the GI50 (SF-539 CNS)?
Answer: 12.1 µM

Question: What about the TGI (SF-539 CNS) of the same compound?
Answer: 29.1 µM

Question: What about the GI50 (NCI-H322M lung) of the same compound?
Answer: 22.4 µM

Question: What about the TGI (NCI-H322M lung) of the same compound?
Answer: 58.4 µM

Question: And the GI50 (MCF7 breast)?
Answer: 26.6 µM

Question: And the TGI (MCF7 breast)?
Answer: > 83 µM

Question: And the GI50 (RXF 393 renal)?
Answer: 25.3 µM

Question: What about the TGI (RXF 393 renal) of the same compound?
Answer: 42.4 µM

Question: And the GI50 (MDA-MB-468 breast)?
Answer: 5.03 µM

Question: And the TGI (MDA-MB-468 breast)?
Answer: 14.4 µM

Question: And the GI50 (NCI-H460 NSCLC)?
Answer: 15.5 µM

Question: And the TGI (NCI-H460 NSCLC)?
Answer: 41.6 µM

Question: What about the GI50 (HCC-2998 colon) of the same compound?
Answer: 12.6 µM

Question: And the TGI (HCC-2998 colon)?
Answer: 34.3 µM

Question: And the GI50 (CCRF-CEM leukemia)?
Answer: 2.74 µM

Question: What about the TGI (CCRF-CEM leukemia) of the same compound?
Answer: 7.58 µM

Question: What about the GI50 (HCT-116 colon) of the same compound?
Answer: 6.88 µM

Question: And the TGI (HCT-116 colon)?
Answer: > 100 µM

Question: And the GI50 (HT29 colon)?
Answer: 5.11 µM

Question: And the TGI (HT29 colon)?
Answer: 25.4 µM

Question: And the GI50 (NCI-H522 lung)?
Answer: 4.74 µM

Question: What about the TGI (NCI-H522 lung) of the same compound?
Answer: 38.6 µM

Question: What about the GI50 (EKVX NSCLC) of the same compound?
Answer: 16.7 µM

Question: What about the TGI (EKVX NSCLC) of the same compound?
Answer: 42.5 µM

Question: What about the GI50 (SNB-75 CNS) of the same compound?
Answer: 14.1 µM

Question: What about the TGI (SNB-75 CNS) of the same compound?
Answer: 28.4 µM

Question: What about the GI50 (NCI/ADR-RES ovarian) of the same compound?
Answer: 62.6 µM

Question: And the TGI (NCI/ADR-RES ovarian)?
Answer: > 100 µM

Question: And the GI50 (DU-145 prostate)?
Answer: 16.2 µM

Question: And the TGI (DU-145 prostate)?
Answer: > 100 µM

Question: And the GI50 (IGROV1 ovarian)?
Answer: 20.5 µM

Question: What about the TGI (IGROV1 ovarian) of the same compound?
Answer: 56.1 µM

Question: And the GI50 (MDA-MB-435 melanoma)?
Answer: 15.7 µM

Question: And the TGI (MDA-MB-435 melanoma)?
Answer: 38.3 µM

Question: And the GI50 (K-562 leukemia)?
Answer: 11.2 µM

Question: What about the TGI (K-562 leukemia) of the same compound?
Answer: > 100 µM

Question: What about the GI50 (UACC-257 melanoma) of the same compound?
Answer: 17.8 µM

Question: What about the TGI (UACC-257 melanoma) of the same compound?
Answer: 44.9 µM

Question: And the GI50 (HOP-92 NSCLC)?
Answer: 19.4 µM

Question: What about the TGI (HOP-92 NSCLC) of the same compound?
Answer: 47.5 µM

Question: And the GI50 (UACC-62 melanoma)?
Answer: 12.2 µM

Question: What about the TGI (UACC-62 melanoma) of the same compound?
Answer: 28.8 µM

Question: And the GI50 (A549 NSCLC)?
Answer: 17.3 µM

Question: What about the TGI (A549 NSCLC) of the same compound?
Answer: > 100 µM

Question: What about the GI50 (RPMI-8226 leukemia) of the same compound?
Answer: 24 µM

Question: And the TGI (RPMI-8226 leukemia)?
Answer: 41.3 µM

Question: What about the GI50 (TK-10 renal) of the same compound?
Answer: 15.8 µM

Question: What about the TGI (TK-10 renal) of the same compound?
Answer: 36 µM

Question: What about the GI50 (OVCAR-5 ovarian) of the same compound?
Answer: 16.3 µM

Question: And the TGI (OVCAR-5 ovarian)?
Answer: 50.2 µM

Question: What about the GI50 (HCT-15 colon) of the same compound?
Answer: 15.9 µM

Question: And the TGI (HCT-15 colon)?
Answer: > 83.9 µM

Question: What about the GI50 (SF-268 CNS) of the same compound?
Answer: 13 µM

Question: And the TGI (SF-268 CNS)?
Answer: 31 µM

Question: And the GI50 (SK-MEL-2 melanoma)?
Answer: 31.8 µM

Question: And the TGI (SK-MEL-2 melanoma)?
Answer: 54 µM

Question: What about the GI50 (COLO 205 colon) of the same compound?
Answer: 2.01 µM

Question: And the TGI (COLO 205 colon)?
Answer: 4.03 µM

Question: And the GI50 (BT-549 breast)?
Answer: 9.62 µM

Question: What about the TGI (BT-549 breast) of the same compound?
Answer: 24.2 µM

Question: What about the GI50 (NCI-H226 lung) of the same compound?
Answer: 18.4 µM

Question: What about the TGI (NCI-H226 lung) of the same compound?
Answer: 60.7 µM

Question: And the GI50 (HS 578T breast)?
Answer: 18.4 µM

Question: And the TGI (HS 578T breast)?
Answer: 35.2 µM

Question: What about the GI50 ([…]-0 renal) of the same compound?
Answer: 16 µM

Question: What about the TGI (786-0 renal) of the same compound?
Answer: 35.1 µM

Question: What about the GI50 (OVCAR-4 ovarian) of the same compound?
Answer: 42 µM

Question: What about the TGI (OVCAR-4 ovarian) of the same compound?
Answer: 88.8 µM

Question: What about the GI50 (A498 renal) of the same compound?
Answer: 10.9 µM

Question: And the TGI (A498 renal)?
Answer: > 92 µM

Question: What about the GI50 (MDA-MB-231 breast) of the same compound?
Answer: 14.9 µM

Question: What about the TGI (MDA-MB-231 breast) of the same compound?
Answer: 33.1 µM

Question: And the GI50 (OVCAR-3 ovarian)?
Answer: 22.2 µM

Question: And the TGI (OVCAR-3 ovarian)?
Answer: 52.4 µM

Question: And the GI50 (SNB-19 CNS)?
Answer: 28.8 µM

Question: What about the TGI (SNB-19 CNS) of the same compound?
Answer: > 100 µM

Question: What about the GI50 (OVCAR-8 ovarian) of the same compound?
Answer: 25.8 µM

Question: What about the TGI (OVCAR-8 ovarian) of the same compound?
Answer: 82.6 µM

Question: And the GI50 (MOLT-4 leukemia)?
Answer: 13.8 µM

Question: And the TGI (MOLT-4 leukemia)?
Answer: 27.8 µM

Question: What about the GI50 (HL-60(TB) leukemia) of the same compound?
Answer: 5.53 µM

Question: And the TGI (HL-60(TB) leukemia)?
Answer: 16.7 µM

Question: What about the GI50 (HOP-62 NSCLC) of the same compound?
Answer: 16 µM

Question: And the TGI (HOP-62 NSCLC)?
Answer: 50.8 µM

Question: And the GI50 (SK-OV-3 ovarian)?
Answer: 28.9 µM

Question: And the TGI (SK-OV-3 ovarian)?
Answer: > 71.3 µM

Question: And the GI50 (CAKI-1 renal)?
Answer: 20.1 µM

Question: What about the TGI (CAKI-1 renal) of the same compound?
Answer: 63.4 µM

Question: What about the GI50 (SR leukemia) of the same compound?
Answer: 2.56 µM

Question: And the TGI (SR leukemia)?
Answer: 5.45 µM

Question: And the GI50 (SF-295 CNS)?
Answer: 28.5 µM

Question: What about the TGI (SF-295 CNS) of the same compound?
Answer: > 85 µM

From PubChem BioAssay (NCI)
